Six molecules from patent EP0101786A1, “Use of a benzoisothiazoline derivative for the manufacture of a medicament against thrombosis and platelet aggregation” (GREEN CROSS CORPORATION, priority 1982, dated 1984) can be followed below.

Series [1] deals with platelet aggregation initiated by promoter ADP (platelet-rich plasma). Kind of series: Inhibition of ADP-induced platelet aggregation (aggregometer, nephelometry). The class given is cell-based. To be noted: 2 min; for inhibition at 10 µg/mL: final conc. 10 γ/ml (10.0 γ/ml); for inhibition at 3 µg/mL: final conc. 3.0 γ/ml. Here is the method:
The inhibitory activity of BIT (1) compounds against platelet aggregation initiated by promoter ADP was determined for various amounts of the BIT (1) compounds. […] Silicon-coated cuvettes on the Aggregometer were filled with 0.8 ml of diluted platelet-rich plasma (containing 300,000 to 400,000 platelets per cmm) and 0.1 ml of solutions of the BIT (1) compounds listed in Table 1 having different concentration (0.3 y/ml, 1.0 γ/ml and 3.0 y/ml as dissolved in 100% alcohol), as well as adenosine (20 y/ml and 100 y/ml) and aspirin (500 y/ml) were added. Following 2-minute incubation, ADP was added to give a final concentration of 10^-5 M. The final volume of each sample was 1 ml. The process of platelet aggregation was monitored with the recorder pen which traced aggregation curves.
The percent inhibition of aggregation was calculated by the following formula: [formula] wherein M represents light transmittance for maximum aggregation in 100 % ethanol (Control);
D represents light transmittance for maximum aggregation in the specific sample.

A short description of series [2]: Acute toxicity test, oral, Litchfield-Wilcoxon method. To be noted: mouse, in vivo, male ddy mice, suspension in distilled water with 0.5 % carboxymethyl cellulose. On the procedure: A group of 10 male ddy mice each weighing […] were subject to an acute toxicity test with BIT (1) (R=n-C3H7, X-Cl) which was administered to the mice orally as suspensions in distilled water for injection that contained 0.5 % of carboxymethyl cellulose.

Series [3] has as its system platelets (platelet-rich plasma, ADP-aggregated). As to the kind of experiment: Acceleration of platelet disaggregation after ADP-induced maximum aggregation. The class given is cell-based. To be noted: 5 minutes after addition, control about 12 %. Here is the method:
ADP was added to platelet-rich plasma as used in (1) above, and when maximum aggregation was reached, BIT (1) compound (R=n-C3H7, X-Cl) was added to check its ability to accelerate the disaggregation of platelets. In this experiment, the procedure of experiment (1) was repeated except that the BIT (1) was added after the aggregation of platelets occurred. To give final concentrations of 1.0 γ/ml, 3.0 y/ml and 6.0 y/ml as dissolved in 100 % ethanol, 0.1 ml of solutions containing 10 γ/ml, 30 γ/ml and 60 y/ml of BIT (1) were added after maximum platelet aggregation took place. As a control, 100 % ethanol was added instead of the BIT (1). The degree of disaggregation was determined by measuring the absorbance of the test samples 5 minuts after the addition of the BIT (1) as against the absorbance for maximum aggregation in that sample.

Where [4] appears, read: ADP 10^-5 M, 2-minute incubation.

The term inhibition denotes the change of the read-out against control, counted positive when it falls. `Nc1ncnc2c1ncn2[C@@H]1O[C@H](CO)[C@@H](O)[C@H]1O` [Adenosine, reference compound]: at 2 µg/mL the inhibition in series [1] (final conc. 2 γ/ml, ADP 10^-5 M, 2-minute incubation) was 47%. In series [1] (setting [4]), this molecule displayed an inhibition at 10 µg/mL of 62%.
In series [1] (setting [4]), `CCCCCCn1sc2cc(Cl)ccc2c1=O` [BIT (R=n-C6H13) (X=Cl), 6-chloro-2-n-hexyl-1,2-benzoisothiazolin-3-one] gave an inhibition at 3 µg/mL of 100%.
For the molecule `CC(=O)Oc1ccccc1C(=O)O` [Aspirin, reference compound], the inhibition at 50 µg/mL in series [1] (read-out: Inhibition of platelet aggregation) amounted to 0%.
`CCCCCCCCCCn1sc2cc(Cl)ccc2c1=O` [BIT (R=n-C10H21) (X=Cl), 6-chloro-2-n-decyl-1,2-benzoiso-thiazolin-3-one]: at 3 µg/mL the inhibition in series [1] (setting [4]) was 100%.
The term LD50 denotes the dose at which mortality reaches 50%. A high value points to a less toxic substance. `CCCn1sc2cc(Cl)ccc2c1=O` [BIT (R=n-C3H7) (X=Cl), 6-chloro-2-n-propyl-1,2-benzoisothiazolin-3-one] returned an LD50 in series [2] of 6500 mg/kg. Also, the results for the disaggregation level in series [3] (final concentration 1.0 γ/ml), in series [3] (final concentration 3.0 γ/ml) and in series [3] (final concentration 6.0 γ/ml) were 25%, 47% and 64%, respectively. This molecule showed an inhibition at 0.3 µg/mL in series [1] (final conc. 0.3 γ/ml, ADP 10^-5 M, 2-minute incubation) of 18%. In series [1] (final conc. 1.0 γ/ml, ADP 10^-5 M, 2-minute incubation), this molecule yielded an inhibition at 1 µg/mL of 43%. The same molecule showed an inhibition at 3 µg/mL in series [1] (setting [4]) of 100%.
In series [1] (setting [4]), `O=c1[nH]sc2cc(Cl)ccc12` [BIT (R=H) (X=Cl)] gave an inhibition at 10 µg/mL of 100%.
